In brackets after ≈: the same amount, converted by molar mass. Read-outs that look alike come from different tables or passages of the source.
Key:
[1] = test system: L1210 mouse leukemia carcinoma cells; experiment: cytotoxicity / inhibition of cell proliferation in L1210 leukemia cells in culture; format: cell-based; settings: drug concentration required to inhibit cell proliferation to 50% of that of untreated control cells; for IC50: Mus musculus, L1210, read-out: L1210 (IC50 ug/ml)
Text: (§1) The biological activity of the 7-deoxy-7-ether-taxol compounds (Formula I) of the invention has been confirmed using well known procedures.
The biological activity of the compounds of this invention has been further confirmed using well known procedures against L1210 leukemia and the results set forth in Table I. The results were obtained using standard well known procedure (Li, L.H.; Kuentzel, S.L.; Murch, L.L.; Pschigoga, L.M.; and W.C. Krueger, "Comparative biological and biochemical effects of nogalamycin and its analogs on L1210 leukemia," Cancer Res. 39:4816-4822 (1979)). The results are expressed as an IC50 which is the drug concentration required to inhibit cell proliferation to 50% of that of untreated control cells. Lower numbers indicated greater activity.

[2] = test system: A2780 human ovarian carcinoma; experiment: activity against A2780 human ovarian carcinoma cells; format: cell-based; settings: for IC50: read-out: A2780 (IC50 ug/ml)
Text: The biological activity of the compounds of this invention has been further confirmed using well known procedures against A2780 human ovarian carcinoma and the results set forth in Table II. The results were obtained using standard well known procedure (Perez, R. P.; O'Dwyer, P. J.; Handel, L. M.; Ozols, R. F.; Hamilton, T. C. Int. J. Cancer 1991, 48, 265, Alley, M.C.; Scudiero, D. A.; Monks, A.; Hursey, M. L; Czerwinski, M. J.; Fine, D. L.; et al. Cancer Res 1988, 48, 589).

[3] = test system: tubulin; experiment: in vitro tubulin polymerization assay (after Gaskin et al.); format: biochemical; settings: in vitro at 20°C, compared with taxol
Text: as §1

[4] = test system: L1210 mouse leukemia carcinoma cells; experiment: cytotoxicity / inhibition of cell proliferation in L1210 leukemia cells in culture; format: cell-based

Row | Molecule | L1210 (IC50 ug/ml) [1] | A2780 (IC50 ug/ml) [2] | further results
1 | 7-[O-(2,2,2-trichloroethoxy)methoxymethyl]-13-(N-Boc-β-phenyl isoserinyl)-baccatin III [Compound 22] | 0.0047 µg/mL | – | –
2 | 7-[O-(2,2,2-trichloroethoxy)methyl]-13-(N-Boc-β-phenyl isoserinyl)-baccatin III [Compound 21] | 0.0024 µg/mL | – | –
3 | 13-(N-Boc-2'-TES-b-phenyl isoserinyl)-baccatin III 7-O-methyl ether [Compound 58] | – | 0.00038 µg/mL | –
4 | CCOCOC1CC2OCC2(OC(C)=O)C2C(OC(=O)c3ccccc3)C3(O)CC(OC(=O)C(O)C(NC(=O)OC(C)(C)C)c4ccccc4)C(C)=C(C(OC(C)=O)C(=O)C12C)C3(C)C (stereo not drawn) [Compound 4, 7-(O-ethoxymethyl)-13-(N-Boc-β-phenylisoserinyl)-baccatin III] | – | 0.0007 µg/mL | induce tubulin polymerization in vitro [3]: able to induce tubulin polymerization in vitro at 20 °C in a manner very similar to taxol
5 | COCCOCOC1CC2OCC2(OC(C)=O)C2C(OC(=O)c3ccccc3)C3(O)CC(OC(=O)C(O)C(NC(=O)OC(C)(C)C)c4ccccc4)C(C)=C(C(OC(C)=O)C(=O)C12C)C3(C)C (stereo not drawn) [Compound 6, 7-(O-methoxyethoxymethyl)-13-(N-Boc-β-phenylisoserinyl)-baccatin III] | 0.0023 µg/mL | – | –
6 | COCOC1CC2OCC2(OC(C)=O)C2C(OC(=O)c3ccccc3)C3(O)CC(OC(=O)C(O)C(NC(=O)OC(C)(C)C)c4ccccc4)C(C)=C(C(OC(C)=O)C(=O)C12C)C3(C)C (stereo not drawn) [Compound 8, 7-(O-methoxymethyl)-13-(N-Boc-2'-β-phenylisoserinyl)-baccatin III] | 0.0011 µg/mL | – | IC90 (90% growth inhibitory concentration) [4]: 0.0011 micrograms/ml
7 | CC(=O)OC1C(=O)C2(C)C(OCOCc3ccccc3)CC3OCC3(OC(C)=O)C2C(OC(=O)c2ccccc2)C2(O)CC(OC(=O)C(O)C(NC(=O)OC(C)(C)C)c3ccccc3)C(C)=C1C2(C)C (stereo not drawn) [Compound 10, 7-(O-benzyloxymethyl)-13-(N-Boc-β-phenylisoserinyl)-baccatin III] | 0.001 µg/mL | – | –
8 | CCOCOC1CC2OCC2(OC(C)=O)C2C(OC(=O)c3ccccc3)C3(O)CC(OC(=O)C(O)C(NC(=O)NC(C)(C)C)c4ccccc4)C(C)=C(C(OC(C)=O)C(=O)C12C)C3(C)C (stereo not drawn) [Compound 14, 7-(O-ethoxymethyl)-13-(N-(t-butylaminocarbonyl)-β-phenylisoserinyl)-baccatin III] | 0.0014 µg/mL | 0.00007 µg/mL | –
9 | COCOC1CC2OCC2(OC(C)=O)C2C(OC(=O)c3ccccc3)C3(O)CC(OC(=O)C(O)C(NC(=O)NC(C)(C)C)c4ccccc4)C(C)=C(C(OC(C)=O)C(=O)C12C)C3(C)C (stereo not drawn) [Compound 27, 7-(O-methoxymethyl)-13-(N-(t-butylaminocarbonyl)-β-phenylisoserinyl)-baccatin III] | – | 0.00004 µg/mL | induce tubulin polymerization in vitro [3]: able to induce tubulin polymerization in vitro at 20 °C in a manner very similar to taxol
10 | CSCOC1CC2OCC2(OC(C)=O)C2C(OC(=O)c3ccccc3)C3(O)CC(OC(=O)C(O)C(NC(=O)c4ccccc4)c4ccccc4)C(C)=C(C(OC(C)=O)C(=O)C12C)C3(C)C (centres unmarked) [Compound 42, 7-(O-methylthiomethyl) taxol] | – | 0.00047 µg/mL | –
11 | CSCOC1CC2OCC2(OC(C)=O)C2C(OC(=O)c3ccccc3)C3(O)CC(OC(=O)C(O)C(NC(=O)OC(C)(C)C)c4ccccc4)C(C)=C(C(OC(C)=O)C(=O)C12C)C3(C)C (stereo not drawn) [Compound 44, 7-(O-methylthiomethyl)-13-(N-Boc-β-phenylisoserinyl)-baccatin III] | – | 0.00037 µg/mL | –
12 | CC(=O)OC1C(=O)C2(C)C(OCSc3ccccc3)CC3OCC3(OC(C)=O)C2C(OC(=O)c2ccccc2)C2(O)CC(OC(=O)C(O)C(NC(=O)c3ccccc3)c3ccccc3)C(C)=C1C2(C)C (centres unmarked) [Compound 46, 7-(O-phenylthiomethyl) taxol] | – | 0.0016 µg/mL | –
13 | COC1CC2OCC2(OC(C)=O)C2C(OC(=O)c3ccccc3)C3(O)CC(OC(=O)C(O)C(NC(=O)c4ccccc4)c4ccccc4)C(C)=C(C(OC(C)=O)C(=O)C12C)C3(C)C (centres unmarked) [Compound 47, 7-O-methyl Taxol] | – | 0.0007 µg/mL | A2780 (IC50 ug/ml) ([2]; retest): 0.00044 µg/mL
14 | CCSC(C)OC1CC2OCC2(OC(C)=O)C2C(OC(=O)c3ccccc3)C3(O)CC(OC(=O)C(O)C(NC(=O)c4ccccc4)c4ccccc4)C(C)=C(C(OC(C)=O)C(=O)C12C)C3(C)C (centres unmarked) [Compound 49, 7-[O-ethyl(1-thioethyl)] Taxol] | – | 0.0057 µg/mL | –
15 | CSCOC1CC2OCC2(OC(C)=O)C2C(OC(=O)c3ccccc3)C3(O)CC(OC(=O)C(O)C(NC(=O)NC(C)(C)C)c4ccccc4)C(C)=C(C(OC(C)=O)C(=O)C12C)C3(C)C (centres unmarked) [Compound 55, 13-(N-(t-butylaminocarbonyl)-b-phenylisoserinyl)-baccatin III 7-O-methylthiomethyl ether] | – | 0.00025 µg/mL | –
16 | COC1CC2OCC2(OC(C)=O)C2C(OC(=O)c3ccccc3)C3(O)CC(OC(=O)C(O)C(NC(=O)NC(C)(C)C)c4ccccc4)C(C)=C(C(OC(C)=O)C(=O)C12C)C3(C)C (centres unmarked) [Compound 56, 13-(N-(t-butylaminocarbonyl)-b-phenylisoserinyl)-baccatin III 7-O-methyl ether] | – | 0.00034 µg/mL | –
17 | CC(=O)O[C@H]1C(=O)[C@@]2(C)[C@H]([C@H](OC(=O)c3ccccc3)[C@]3(O)C[C@H](OC(=O)[C@H](O)[C@@H](NC(=O)c4ccccc4)c4ccccc4)C(C)=C1C3(C)C)[C@]1(OC(C)=O)CO[C@@H]1C[C@@H]2O [taxol, Taxol] | – | – | IC50 [2]: 0.0018 µg/mL (≈ 2.11 nM); IC90 ([4]; read-out: IC90 (90% growth inhibitory concentration)): 17 ng/mL (≈ 19.9 nM); IC50 [1]: 0.017 µg/mL (≈ 19.9 nM)
18 | CC(=O)O[C@@]12CO[C@@H]1C[C@H](O)[C@@]1(C)C(=O)[C@H](O)C3=C(C)[C@@H](OC(=O)[C@H](O)[C@@H](NC(=O)OC(C)(C)C)c4ccccc4)C[C@@](O)([C@@H](OC(=O)c4ccccc4)[C@H]21)C3(C)C [taxotere, reference compound] | – | – | IC50 [2]: 0.0007 µg/mL (≈ 0.866 nM); IC50 [1]: 0.004 µg/mL (≈ 4.95 nM)
